Reference: patent publication US20070155730A1, “Benzodiazepine And Benzopiperazine Analog Inhibitors Of Histone Deacetylase” (METHYLGENE, INC., priority 2005, published 2007)

Target: histone deacetylase (HDAC)
Test: Inhibition of Histone Deacetylase Enzymatic Activity
Format: biochemical
Conditions: substrate Boc-Lys(Ac)-AMC, Fluor-de-Lys developer, 37° C., 20 min; against one or more of HDAC-1 to HDAC-11, SirT1 to SirT7 (isoform not given); read-out: HDAC Inhibitory Activity (IC50)
Protocol: The following protocol is used to assay the compounds of the invention. In the assay, the buffer used is 25 mM HEPES, pH 8.0, 137 mM NaCl, 2.7 mM KCl, 1 mM MgCl2 and the substrate is Boc-Lys(Ac)-AMC in a 50 mM stock solution in DMSO. The enzyme stock solution is 4.08 μg/mL in buffer.
The compounds are pre-incubated (2 μl in DMSO diluted to 13 μl in buffer for transfer to assay plate) with enzyme (20 μl of 4.08 μg/mL) for 10 min at room temperature (35 μl pre-incubation volume). The mixture is pre-incubated for 5 min at room temperature. The reaction is started by bringing the temperature to 37° C. and adding 16 μl substrate. Total reaction volume is 50 μl. […] A plate is incubated in the dark for 10 min at room temperature before reading (λEX=360 nm, λEm=470 nm, Cutoff filter at 435 nm).
In the table, “A” indicates inhibitory activity at a concentration of <0.05 μM; “B” indicates inhibitory activity at a concentration >0.05 μM but <0.5 μM, “C” indicates inhibitory activity at >0.5 μM but <2 μM and “D” indicates inhibitory activity at a concentration of >2 μM but <10 μM.

| IC50 [nM] | SMILES |
| --- | --- |
| 500 to 2000 | COc1ccc(CN2C(=O)C(CCCCCC(=O)NO)NC(=O)c3ccccc32)cc1 (stereo not drawn) [Compound 82, 6-(1-(4-Methoxybenzyl)-2,3,4,5-tetrahydro-2,5-dioxo-1H-benzo[e][1,4]diazepin-3-yl)-N-hydroxyhexanamide] |
| 2000 to 10000 | CC(C)[C@H]1C(=O)Nc2cc(C(=O)NO)ccc2N1S(=O)(=O)c1ccccc1 [Compound 18a, (S)—N-hydroxy-2-isopropyl-3-oxo-1-(phenylsulfonyl)-1,2,3,4-tetrahydroquinoxaline-6-carboxamide] |
| 50 to 500 | Nc1ccc(-c2cccs2)cc1NC(=O)c1ccc(-c2ccc3c(c2)NC(=O)[C@H](Cc2c[nH]c4ccccc24)N3)cc1 [Compound 62, 4-((S)-2-((1H-indol-3-yl)methyl)-1,2,3,4-tetrahydro-3-oxoquinoxalin-6-yl)-N-(2-amino-5-(thiophen-2-yl)phenyl)benzamide] |
| 2000 to 10000 | O=C(NO)c1ccc2c(c1)NC(=O)[C@H](c1ccccc1)NC2=O [Compound 97i, (S)-N-Hydroxy-2,5-dioxo-3-phenyl-2,3,4,5-tetrahydro-1H-benzo[e][1,4]diazepine-8-carboxamide] |
| 2000 to 10000 | O=C(NO)c1ccc2c(c1)NC(=O)[C@@H](c1ccccc1)NC2=O [Compound 97j, (R)-N-Hydroxy-2,5-dioxo-3-phenyl-2,3,4,5-tetrahydro-1H-benzo[e][1,4]diazepine-8-carboxamide] |
| 2000 to 10000 | Cc1cc(C)c(S(=O)(=O)N2c3ccc(C(=O)NO)cc3NC(=O)[C@@H]2C(C)C)c(C)c1 [Compound 18c, (S)—N-hydroxy-2-isopropyl-3-oxo-1-(2,4,6-trimethybenzenesulfonyl)-1,2,3,4-tetrahydroquinoxaline-6-carboxamide] |
| 500 to 2000 | O=C(CCc1ccc2c(c1)NC(=O)[C@H](Cc1c[nH]c3ccccc13)N2)NO [Compound 69, 3-((S)-2-((1H-indol-3-yl)methyl)-1,2,3,4-tetrahydro-3-oxoquinoxalin-6-yl)-N-hydroxypropanamide] |
| < 50 | CC(C)(C)OC(=O)NCCCC[C@@H]1C(=O)Nc2ccccc2N1Cc1ccc(C(=O)NO)cc1 [Compound 54b9, (R)-tert-butyl 4-(1-(4-(hydroxycarbamoyl)benzyl)-3-oxo-1,2,3,4-tetrahydroquinoxalin-2-yl)butylcarbamate] |
| 500 to 2000 | O=C(NO)c1ccc2c(c1)NC(=O)[C@H](CC1CCCCC1)NC2=O [Compound 97h, (S)-3-(Cycbohexylmethyl)-N-hydroxy-2,5-dioxo-2,3,4,5-tetrahydro-1H-benzo[e][1,4]diazepine-8-carboxamide] |
| 2000 to 10000 | CC(C)C[C@H]1NC(=O)c2ccccc2N(CCCCCC(=O)Nc2ccccc2N)C1=O [Compound 71, N-(2-Aminophenyl)-6-((R)-2,3,4,5-tetrahydro-3-isobutyl-2,5-dioxobenzo[e][1,4]diazepin-1-yl)hexanamide] |
| < 50 | O=C(NO)c1ccc(CN2c3ccccc3NC(=O)[C@H]2Cc2csc3ccccc23)cc1 [Compound 54b13, (R)-4-((2-(benzo[b]thiophen-3-ylmethyl)-3-oxo-3,4-dihydroquinoxalin-1(2H)-yl)methyl)-N-hydroxybenzamide] |
| 2000 to 10000 | CC(C)[C@H]1C(=O)Nc2cc(C(=O)NO)ccc2N1Cc1ccc(C(=O)O)cc1 [Compound 16d, 4-(((S)-7-(hydroxycarbamoyl)-2,3-dihydro-3-isopropyl-2-oxoquinoxalin-4(1H)-yl)methyl)benzoic acid] |
| 2000 to 10000 | CC(C)C[C@@H]1Nc2ccc(C(=O)NO)cc2NC1=O [Compound 4k, (S)-1,2,3,4-Tetrahydro-N-hydroxy-2-isobutyl-3-oxoquinoxaline-6-carboxamide] |
| 50 to 500 | O=C(NO)c1ccc(CN2c3ccccc3NC(=O)[C@H]2Cc2cccc(C(F)(F)F)c2)cc1 [Compound 54b19, (R)—N-hydroxy-4-((2-(3-(trifluoromethyl)benzyl)-3-oxo-3,4-dihydroquinoxalin-1(2H)-yl)methyl)benzamide] |
| 500 to 2000 | CC(C)[C@H]1C(=O)Nc2cc(C(=O)NO)ccc2N1CCCc1ccccc1 [Compound 16c, (S)-1,2,3,4-tetrahydro-N-hydroxy-2-isopropyl-3-oxo-1-(3-phenylpropyl)quinoxaline-6-carboxamide] |
| 2000 to 10000 | CSCC[C@@H]1Nc2ccc(C(=O)NO)cc2NC1=O [Compound 4b, (S)-1,2,3,4-tetrahydro-N-hydroxy-2-(2-(methylthio)ethyl)-3-oxoquinoxaline-6-carboxamide] |
| 50 to 500 | O=C(CCCCCN1C(=O)[C@@H](CC2CCCCC2)NC(=O)c2ccccc21)NO [Compound 68b21, 6-((R)-3-(cyclohexylmethyl)-2,3,4,5-tetrahydro-2,5-dioxobenzo[e][1,4]diazepin-1-yl)-N-hydroxyhexanamide] |
| 2000 to 10000 | CCC(C)[C@@H]1Nc2ccc(C(=O)NO)cc2NC1=O (stereo partly drawn) [Compound 4d, (S)-2-sec-butyl-1,2,3,4-tetrahydro-N-hydroxy-3-oxoquinoxaline-6-carboxamide] |
| 500 to 2000 | CC(C)[C@H]1C(=O)Nc2cc(C(=O)NO)ccc2N1S(=O)(=O)c1ccc(-c2ccccc2)cc1 [Compound 18b, (S)—N-hydroxy-1-(biphenyl-4-sulfonyl)-2-isopropyl-3-oxo-1,2,3,4-tetrahydroquinoxaline-6-carboxamide] |
| 500 to 2000 | O=C(NO)c1ccc2c(c1)NC(=O)[C@H](Cc1c[nH]c3ccccc13)N2 [Compound 4c, (S)-2-((1H-indol-3-yl)methyl)-1,2,3,4-tetrahydro-N-hydroxy-3-oxoquinoxaline-6-carboxamide] |
| 50 to 500 | COc1ccc(CN2c3ccccc3NC(=O)C2CCCCCC(=O)NO)cc1 (stereo not drawn) [Compound 47a, 6-(1-(4-methoxybenzyl)-1,2,3,4-tetrahydro-3-oxoquinoxalin-2-yl)-N-hydroxyhexanamide] |
| < 50 | O=C(NO)c1ccc(CN2c3ccccc3NC(=O)[C@H]2Cc2c[nH]c3ccccc23)cc1 [Compound 54b2, (R)-4-((2-((1H-indol-3-yl)methyl)-3-oxo-3,4-dihydroquinoxalin-1(2H)-yl)methyl)-N-hydroxybenzamide] |
| 500 to 2000 | O=C(CCCCCN1C(=O)[C@H](CC2CCCCC2)NC(=O)c2ccccc21)NO [Compound 68b20, 6-((S)-3-(Cyclohexylmethyl)-2,3,4,5-tetrahydro-2,5-dioxobenzo[e][1,4]diazepin-1-yl)-N-hydroxyhexanamide] |
| < 50 | O=C(NO)c1ccc(CN2c3ccccc3NC(=O)[C@@H]2Cc2c[nH]c3ccccc23)cc1 [Compound 54b3, (S)-4-((2-((1H-indol-3-yl)methyl)-3-oxo-3,4-dihydroquinoxalin-1(2H)-yl)methyl)-N-hydroxybenzamide] |
| 2000 to 10000 | Nc1ccccc1NC(=O)c1ccc2c(c1)NC(=O)[C@H](Cc1c[nH]c3ccccc13)N2 [Compound 5c, (S)-2-((1H-indol-3-yl)methyl)-N-(2-aminophenyl)-1,2,3,4-tetrahydro-3-oxoquinoxaline-6-carboxamide] |
| 2000 to 10000 | CC(C)[C@H]1C(=O)Nc2cc(C(=O)NO)ccc2N1Cc1cccs1 [Compound 16e, (S)-1,2,3,4-tetrahydro-N-hydroxy-2-isopropyl-3-oxo-1-((thiophen-2-yl)methyl)quinoxaline-6-carboxamide] |
| 500 to 2000 | O=C(CCCCCN1C(=O)[C@@H](Cc2ccncc2)NC(=O)c2ccccc21)NO [Compound 68b9, 6-((R)-2,3,4,5-Tetrahydro-2,5-dioxo-3-((pyridin-4-yl)methyl)benzo [e][1,4]diazepin-1-yl)-N-hydroxyhexanamide] |
| 500 to 2000 | O=C(/C=C/c1ccc2c(c1)NC(=O)[C@H](Cc1c[nH]c3ccccc13)N2)NO [Compound 66c, (E)-3-((S)-2-((1H-indol-3-yl)methyl)-1,2,3,4-tetrahydro-3-oxoquinoxalin-6-yl)-N-hydroxyacrylamide] |
| 50 to 500 | O=C(NO)c1ccc(O[C@@H]2C[C@@H](C(=O)Nc3cccc4cccnc34)N(C(=O)OCc3ccccc3)C2)cc1 [Compound 109b, (2S,4R)- Benzyl 4-(4-(hydroxycarbamoyl)phenoxy)-2-(quinolin-8-ylcarbamoyl) pyrrolidine-1-carboxylate] |
| 50 to 500 | O=C(CCOC1C[C@@H](C(=O)Nc2cccc3cccnc23)N(C(=O)OCc2ccccc2)C1)NO (stereo in doubt) [Compound 112d, (2S,4S)-benzyl 4-(3-(hydroxyamino)-3-oxopropoxy)-2-(quinolin-8-ylcarbamoyl) pyrrolidine-1-carboxylate] |

| SMILES | IC50 [nM] |
| --- | --- |
| O=C(NO)c1ccc(CN2C(=O)CNC(=O)[C@H]2Cc2cccs2)cc1 [Compound 136c, (R)-4-((3,6-Dioxo-2-(thien-2-ylmethyl)piperazin-1-yl)methyl)-N-hydroxybenzamide] | 50 to 500 |
| O=C(NO)c1ccc(CN2c3ccccc3NC(=O)[C@@H]2Cc2cccs2)cc1 [Compound 54a1, 4-(((S)-2,3-Dihydro-2-oxo-3-((thiophen-2-yl)methyl)quinoxalin-4(1H)-yl)methyl)-N-hydroxybenzamide] | 50 to 500 |
| O=C(NO)c1ccc(CN2c3ccccc3NC(=O)[C@H]2Cc2cccs2)cc1 [Compound 56a, 4-(((R)-2,3-Dihydro-2-oxo-3-((thiophen-2-yl)methyl)quinoxalin-4(1H)-yl)methyl)-N-hydroxybenzamide] | 500 to 2000 |
